Results: PubChem BioAssay (NCI)
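Dose response: 5 concentrations. Exposure: 48 h. Format: 96-well plates. Endpoint: linear interpolation; highest concentration if not reached. TGI: total growth inhibition.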

Experiments:
Experiment in all cases: NCI anticancer screen, dose series, 48 h
[1] = system: KM12 colon
[2] = system: IGROV1 ovarian
[3] = system: LOX IMVI melanoma
[4] = system: SK-OV-3 ovarian
[5] = system: UACC-257 melanoma
[6] = system: M14 melanoma
[7] = system: NCI-H23 lung
[8] = system: HOP-92 NSCLC
[9] = system: SK-MEL-5 melanoma
[10] = system: NCI/ADR-RES ovarian
[11] = system: MDA-MB-435
[12] = system: SN12C renal
[13] = system: SK-MEL-28 melanoma
[14] = system: BT-549 breast
[15] = system: SNB-75 CNS
[16] = system: MALME-3M melanoma
[17] = system: K-562 leukemia
[18] = system: SW-620 colon
[19] = system: COLO 205 colon
[20] = system: DU-145 prostate
[21] = system: OVCAR-4 ovarian
[22] = system: ACHN renal
[23] = system: NCI-H460 lung
[24] = system: MCF7 breast
[25] = system: OVCAR-5 ovarian
[26] = system: UACC-62 melanoma
[27] = system: HCT-116 colon
[28] = system: RXF 393 renal
[29] = system: OVCAR-8 ovarian
[30] = system: SK-MEL-2 melanoma
[31] = system: TK-10 renal
[32] = system: HCT-15 colon
[33] = system: SNB-19 CNS
[34] = system: SR leukemia
[35] = system: SF-539 CNS
[36] = system: NCI-H522 lung
[37] = system: EKVX NSCLC
[38] = system: PC-3 prostate
[39] = system: U251 CNS
[40] = system: MOLT-4 leukemia
[41] = system: UO-31 renal
[42] = system: HT29 colon
[43] = system: A549 NSCLC
[44] = system: CCRF-CEM leukemia
[45] = system: SF-295 CNS
[46] = system: CAKI-1 renal
[47] = system: OVCAR-3 ovarian
[48] = system: 786-0 renal
[49] = system: SF-268 CNS
[50] = system: NCI-H226 lung
[51] = system: HS 578T breast
[52] = system: MDA-N
[53] = system: MDA-MB-231 breast
[54] = system: HCC-2998 colon
[55] = system: A498 renal
[56] = system: T-47D breast
[57] = system: RPMI-8226 leukemia
[58] = system: HOP-62 NSCLC

`COC(=O)Cc1c(C(=O)CC(C)(C)n2cnc(CCN3C(=O)CCC3=O)c2)[nH]c2ccccc12` was tested, and the TGI [1] was > 100 µM, the TGI [2] was > 100 µM and the TGI [3] was > 100 µM. The TGI [4] was > 100 µM, the TGI [5] was > 100 µM and the TGI [6] was > 100 µM. The TGI [7] was > 100 µM, the TGI [8] was > 100 µM and the TGI [9] was > 100 µM. For the same compound, the TGI [10] was > 100 µM, the TGI [11] was > 100 µM and the TGI [12] was > 100 µM. For the same compound, the TGI [13] was > 100 µM, the TGI [14] was > 100 µM and the TGI [15] was > 100 µM. The TGI [16] was > 100 µM, the TGI [17] was > 100 µM and the TGI [18] was > 100 µM. The TGI [19] was > 100 µM, the TGI [20] was > 100 µM and the TGI [21] was > 100 µM. For the same compound, the TGI [22] was > 100 µM, the TGI [23] was > 100 µM and the TGI [24] was > 100 µM. For the same compound, the TGI [25] was > 100 µM, the TGI [26] was > 100 µM and the TGI [27] was > 100 µM. The TGI [28] was 96 µM, the TGI [29] was > 100 µM and the TGI [30] was > 100 µM. The TGI [31] was > 100 µM, the TGI [32] was > 100 µM and the TGI [33] was > 100 µM. The TGI [34] was > 100 µM, the TGI [35] was > 100 µM and the TGI [36] was > 100 µM. For the same compound, the TGI [37] was > 100 µM, the TGI [38] was > 100 µM and the TGI [39] was > 100 µM. For the same compound, the TGI [40] was > 100 µM, the TGI [41] was > 100 µM and the TGI [42] was > 100 µM. The TGI [43] was > 100 µM, the TGI [44] was > 100 µM and the TGI [45] was > 100 µM. For the same compound, the TGI [46] was > 100 µM, the TGI [47] was > 100 µM and the TGI [48] was > 100 µM. For the same compound, the TGI [49] was > 100 µM, the TGI [50] was > 100 µM and the TGI [51] was > 100 µM. For the same compound, the TGI [52] was > 100 µM and the TGI [53] was > 100 µM.

In the case of `N=C1N(/N=C/c2ccccn2)C(=Nc2ccccc2)C(=S)N1c1ccccc1`, the TGI [1] is reported as 17.3 µM, the TGI [2] is reported as 18.8 µM and the TGI [3] is reported as 11.3 µM. For the same compound, the TGI [4] was 42.8 µM, the TGI [5] was 21.3 µM and the TGI [7] was 19.5 µM. It also gave a TGI [8] of 22.9 µM, a TGI [54] of 22 µM and a TGI [9] of 16.5 µM. The TGI [10] was 10.6 µM, the TGI [11] was 17.4 µM and the TGI [12] was 17.9 µM. The TGI [13] was 23 µM, the TGI [55] was 39.5 µM and the TGI [15] was 42.2 µM. The TGI [16] was 22.8 µM, the TGI [17] was > 100 µM and the TGI [18] was 16.3 µM. It also gave a TGI [56] of 21.1 µM, a TGI [19] of 5.36 µM and a TGI [20] of 13.4 µM. It also gave a TGI [21] of 23.9 µM, a TGI [22] of 7.96 µM and a TGI [23] of 15.9 µM. The TGI [25] was 17.5 µM, the TGI [26] was 4.61 µM and the TGI [27] was 8.34 µM. It also gave a TGI [28] of 16.4 µM, a TGI [29] of 13.8 µM and a TGI [30] of 12.8 µM. For the same compound, the TGI [31] was 22.9 µM, the TGI [32] was 12.2 µM and the TGI [33] was 31.2 µM. For the same compound, the TGI [34] was > 100 µM, the TGI [57] was > 100 µM and the TGI [35] was 15.8 µM. For the same compound, the TGI [58] was 22 µM, the TGI [36] was 3.72 µM and the TGI [37] was 15.9 µM. The TGI [38] was 15.8 µM, the TGI [39] was 20.7 µM and the TGI [40] was > 100 µM. The TGI [41] was 16 µM, the TGI [42] was 13.6 µM and the TGI [43] was 23.8 µM. For the same compound, the TGI [44] was > 100 µM, the TGI [45] was 19 µM and the TGI [46] was 20 µM. It also gave a TGI [48] of 13.7 µM, a TGI [49] of 18.3 µM and a TGI [50] of 32.9 µM. The TGI [51] was 29.4 µM, the TGI [52] was 11.8 µM and the TGI [53] was 19.8 µM.
